Assay results reported in US9174939B2, “Soft rock inhibitors” (Amakem NV, priority 2011, dated 2015).
pIC50: −log10 of the molar value.

Legend:
ROCK II = ROCK II (Homo sapiens, UniProt O75116); assay: Kinase inhibition (ROCKI or ROCKII), 33P-ATP filter assay; format: biochemical; settings: 120 min at room temperature
Procedure: C.1.1. Kinase inhibition (ROCKI or ROCKII)
Base Reaction buffer; 20 mM Hepes (pH 7.5), 10 mM MgCl2, 1 mM EGTA, 0.02% Brij35, 0.02 mg/ml BSA, 0.1 mM Na3VO4, 2 mM DTT, 1% DMSO—Required cofactors are added individually to each kinase reaction • Reaction Procedure: • 1. Prepare indicated substrate in freshly prepared Base Reaction Buffer • 2. Deliver any required cofactors to the substrate solution above • 3. Deliver indicated kinase into the substrate solution and gently mix • 4. Deliver compounds in DMSO into the kinase reaction mixture • 5. Deliver ^33P-ATP (specific activity 0.01 μCi/μl final) into the reaction mixture to initiate the reaction. • 6. […] Wash filters extensively in 0.1% Phosphoric acid.

[1] = test system: MLC-T18/S19 phosphorylation by endogenous ROCK in A7r5 cells; assay: Myosin Light Chain Phosphorylation assay (ELISA, A7r5 cells); format: cell-based; settings: A7r5 rat smooth muscle cells, serum-free medium, phospho-MLC-T18/S19 ELISA
Procedure: C.1.4. Myosin Light Chain Phosphorylation assay
Rat smooth muscle cell line A7r5 is used. The endogenous expression of ROCK results in a constitutive phosphorylation of the regulatory myosin light chain at T18/S19. A7r5 cells were plated in DMEM supplemented with 10% FCS in multiwall cell culture plates. After serum starvation overnight, cells were incubated with compounds in serum-free medium.
Quantification of MLC-T18/S19 phosphorylation is assessed in 96 well-plates via ELISA using a phspho-MLC-T18/S19 specific antibody and a secondary detection antibody. Raw data were converted into percent substrate phosphorylation relative to high controls, which were set to 100%. IC50 values were determined using GraphPad Prism 5.01 software using a nonlinear regression curve fit with variable hill slope.

[2] = Stability assay in human plasma; format: in vitro ADME; settings: 1 μM compound in human plasma, LC-MS/MS; read-out: t½ human plasma
Procedure: C.2.1. Stability Assay in Human and/or Rat Plasma
Compounds are incubated at a concentration of 1 μM in rat (mice, dog, monkey, minipig or rabbit) or human plasma. Samples are taken at fixed time points and the remnant of compound is determined by LC-MS/MS after protein precipitation. Half life is expressed in minutes.

[3] = Stability assay in rabbit aqueous humor; format: in vitro ADME; settings: 1 μM in rabbit aqueous humor, LC-MS/MS; read-out: t½ Rabbit AH
Procedure: C.2.3. Stability Assay in Rabbit Aqueous Humor
Compounds are incubated at a concentration of 1 μM in rabbit aqueous humor (AH). Samples are taken at fixed time points and the remnant of compound is determined by LC-MS/MS after protein precipitation.

[4] = Stability towards drug metabolizing enzymes in lung S9; format: in vitro ADME; settings: human, lung S9 (from smokers) with NADPH, UDPGA, PAPS and GSH, read-out: t½ human lung S9
Procedure: C.2.2. Stability Towards Drug Metabolizing Enzymes in Lung S9
A 1 μM solution of the ROCK inhibitors is incubated with a reaction mixture containing lung S9 (from smokers) as well as the cofactors NADPH, UDPGA, PAPS and GSH. Samples are collected at 0, 15, 30 and 60 minutes post incubation. Negative control samples incubated with ROCK inhibitors and S9 fraction in the absence of cofactors are run in parallel. By using LC-MS/MS analysis, the percent of ROCK compounds remaining at each time point, the metabolic half-life of the ROCK compounds (expressed in minutes) and the metabolic half-life of the control compounds are determined.

Sequence of ROCK II (O75116 whole entry): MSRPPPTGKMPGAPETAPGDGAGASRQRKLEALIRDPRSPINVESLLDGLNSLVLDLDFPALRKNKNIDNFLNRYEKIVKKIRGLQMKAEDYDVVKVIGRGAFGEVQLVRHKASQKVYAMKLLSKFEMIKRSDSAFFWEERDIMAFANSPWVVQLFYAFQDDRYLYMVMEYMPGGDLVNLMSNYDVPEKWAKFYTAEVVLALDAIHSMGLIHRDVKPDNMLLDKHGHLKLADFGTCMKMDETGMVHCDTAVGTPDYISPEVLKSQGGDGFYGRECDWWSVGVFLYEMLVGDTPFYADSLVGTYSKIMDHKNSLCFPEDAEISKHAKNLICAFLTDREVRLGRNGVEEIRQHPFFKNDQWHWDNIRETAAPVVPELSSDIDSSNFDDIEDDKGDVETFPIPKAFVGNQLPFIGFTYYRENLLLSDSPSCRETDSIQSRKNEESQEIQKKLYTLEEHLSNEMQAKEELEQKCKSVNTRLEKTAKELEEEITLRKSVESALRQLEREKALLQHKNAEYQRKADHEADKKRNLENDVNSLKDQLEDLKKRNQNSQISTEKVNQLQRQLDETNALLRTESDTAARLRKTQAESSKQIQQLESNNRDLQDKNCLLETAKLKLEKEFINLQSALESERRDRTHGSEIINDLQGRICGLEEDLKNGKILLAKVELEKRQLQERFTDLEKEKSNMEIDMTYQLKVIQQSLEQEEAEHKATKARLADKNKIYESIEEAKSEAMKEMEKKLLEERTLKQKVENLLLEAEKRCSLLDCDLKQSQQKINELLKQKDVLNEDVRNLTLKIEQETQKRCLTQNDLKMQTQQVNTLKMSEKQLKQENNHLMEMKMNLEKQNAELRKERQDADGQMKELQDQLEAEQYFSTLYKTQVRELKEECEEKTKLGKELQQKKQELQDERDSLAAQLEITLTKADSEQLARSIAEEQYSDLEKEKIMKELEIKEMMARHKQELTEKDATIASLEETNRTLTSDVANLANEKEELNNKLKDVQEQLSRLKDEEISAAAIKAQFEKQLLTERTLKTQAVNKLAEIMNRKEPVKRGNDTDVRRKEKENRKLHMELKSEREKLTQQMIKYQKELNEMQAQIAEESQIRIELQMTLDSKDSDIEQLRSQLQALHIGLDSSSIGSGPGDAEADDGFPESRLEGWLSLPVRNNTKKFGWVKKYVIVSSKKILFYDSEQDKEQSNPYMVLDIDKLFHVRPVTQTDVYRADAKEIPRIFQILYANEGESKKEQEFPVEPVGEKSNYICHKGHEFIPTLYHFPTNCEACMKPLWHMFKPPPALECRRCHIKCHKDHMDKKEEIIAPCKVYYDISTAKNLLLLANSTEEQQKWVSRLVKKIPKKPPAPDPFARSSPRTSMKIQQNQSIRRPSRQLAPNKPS

Row | SMILES | pIC50 (ROCK II) | pIC50 [1] | also measured
1 | COC(=O)c1cccc(NC(=O)c2cccc(-c3cc(C(=O)Nc4ccncc4F)ccc3CN)c2)c1 [Compound 1] | > 8.00 | > 6.70 | half-life at 1 μM [2]: < 0.0833 h; half-life at 1 μM [3]: > 1 h; half-life at 1 μM [4]: > 0.5 h
2 | COC(=O)Cc1cccc(NC(=O)c2cccc(-c3cc(C(=O)Nc4ccncc4F)ccc3CN)c2)c1 [Compound 2] | > 8.00 | > 6.70 | 
3 | COC(=O)c1ccc(NC(=O)c2cccc(-c3cc(C(=O)Nc4ccncc4F)ccc3CN)c2)cc1 [Compound 3] | > 8.00 | > 6.70 | 
4 | COC(=O)Cc1ccc(NC(=O)c2cccc(-c3cc(C(=O)Nc4ccncc4F)ccc3CN)c2)cc1 [Compound 4] | > 8.00 | > 6.70 | 
5 | NCc1ccc(C(=O)Nc2ccncc2F)cc1-c1cccc(NC(=O)c2ccc3c(c2)COC3=O)c1 [Compound 5] | > 8.00 |  | half-life at 1 μM [2]: < 1 h
6 | COC(=O)c1ccc(F)c(NC(=O)c2cccc(-c3cc(C(=O)Nc4ccncc4F)ccc3CN)c2)c1 [Compound 6] | > 8.00 | > 6.70 | half-life at 1 μM [2]: < 1 h
7 | COC(=O)c1cncc(NC(=O)c2cccc(-c3cc(C(=O)Nc4ccncc4F)ccc3CN)c2)c1 [Compound 7] | > 8.00 |  | 
8 | CCCOC(=O)c1cccc(NC(=O)c2cccc(-c3cc(C(=O)Nc4ccncc4F)ccc3CN)c2)c1 [Compound 8] | > 8.00 | > 6.70 | half-life at 1 μM [2]: < 0.0833 h; half-life at 1 μM [3]: > 1 h
9 | COC(=O)c1cc(F)cc(NC(=O)c2cccc(-c3cc(C(=O)Nc4ccncc4F)ccc3CN)c2)c1 [Compound 9] | > 8.00 |  | 
10 | CCCOC(=O)c1cc(F)cc(NC(=O)c2cccc(-c3cc(C(=O)Nc4ccncc4F)ccc3CN)c2)c1 [Compound 10] | > 7.00 | > 6.70 | 
11 | COC(=O)c1csc(NC(=O)c2cccc(-c3cc(C(=O)Nc4ccncc4F)ccc3CN)c2)n1 [Compound 11] | > 8.00 |  | 
12 | CCCOC(=O)c1ccc(F)c(NC(=O)c2cccc(-c3cc(C(=O)Nc4ccncc4F)ccc3CN)c2)c1 [Compound 12] | > 8.00 | > 6.70 | 
13 | COC(=O)c1ccc(NC(=O)c2cccc(-c3cc(C(=O)Nc4ccncc4F)ccc3CN)c2)cc1C [Compound 13] | > 8.00 |  | 
14 | CCOC(=O)c1nnc(NC(=O)c2cccc(-c3cc(C(=O)Nc4ccncc4F)ccc3CN)c2)o1 [Compound 14] | > 8.00 |  | 
15 | COC(=O)c1ccc(NC(=O)c2cccc(-c3cc(C(=O)Nc4ccncc4F)ccc3CN)c2)o1 [Compound 15] | > 8.00 |  | 
16 | COC(=O)c1ccc(C(=O)Nc2cccc(-c3cc(C(=O)Nc4ccncc4F)ccc3CN)c2)cc1 [Compound 16] | > 8.00 |  | 
17 | COC(=O)c1cccc(C(=O)Nc2cccc(-c3cc(C(=O)Nc4ccncc4F)ccc3CN)c2)c1 [Compound 17] | > 8.00 | > 6.70 | 
18 | COC(=O)c1ccc(C(=O)Nc2cccc(-c3cc(C(=O)Nc4ccncc4F)ccc3CN)c2)nc1 [Compound 18] | > 8.00 |  | 
19 | CCCOC(=O)Cc1cccc(NC(=O)c2cccc(-c3cc(C(=O)Nc4ccncc4F)ccc3CN)c2)c1 [Compound 19] | > 8.00 |  | 
20 | COC(=O)c1cc(NC(=O)c2cccc(-c3cc(C(=O)Nc4ccncc4F)ccc3CN)c2)ccc1C [Compound 20] | > 8.00 |  | 
21 | CCCOC(=O)c1ccc(NC(=O)c2cccc(-c3cc(C(=O)Nc4ccncc4F)ccc3CN)c2)cc1C [Compound 21] | > 8.00 |  | 
22 | CCCOC(=O)c1cc(NC(=O)c2cccc(-c3cc(C(=O)Nc4ccncc4F)ccc3CN)c2)ccc1C [Compound 22] | > 8.00 |  | 
